The values that follow come from ChEMBL document CHEMBL6103545, “Discovery of GS-2278, a Potent and Selective LPAR1 Antagonist for the Treatment of Idiopathic Pulmonary Fibrosis” (J Med Chem, 2025).

Series [1] addresses T1, Lysophosphatidic acid receptor 1 (Homo sapiens, UniProt Q92633). As to the kind of experiment: Antagonist activity at LPA1 receptor in serum starved human TWNT-4 cells assessed as nuclear translocation pre-incubated for 1 hr followed by LPA stimulation and measured after 30 min by MRTF-A assay. It counts as cell-based.
A short description of series [2]: Lipophilicity, logD of compound at pH 7.4. The series is classed as physicochemical. As to conditions: buffer.
Series [3] is described as follows: Plasma protein binding in human assessed as unbound fraction incubated for 24 hrs by equilibrium dialysis based Rapidfire-QToF mass spectrometric analysis. The series is classed as ADME, cell-free.
Series [4] in a line: Apparent permeability across apical to basolateral side in cMDR1 knockout MDCK-II cells incubated upto 240 mins by RF-QToF analysis. The series is classed as ADME, cell-based, Canis lupus familiaris. The following applies: dog.
The nature of series [5]: Dissociation constant, pKa of compound at 100 uM by capillary electrophoresis. The series is classed as physicochemical.
A short description of series [6]: Drug excretion in bile-duct cannulated rat urine at 1 mg/kg, iv. It counts as ADME, organism-based. The following applies: read-out: Drug excretion.
The nature of series [7]: Metabolic stability in male Sprague-Dawley rat liver microsomes assessed as intrinsic clearance at 1 uM by LC/MS/MS analysis. The series is classed as ADME, Microsome. As to conditions: read-out: CLH (converted).
The nature of series [8]: Metabolic stability in Beagle dog liver microsomes assessed as intrinsic clearance at 1 uM by LC/MS/MS analysis. The series is classed as ADME, Canis lupus familiaris, Microsome. The following applies: read-out: CLH (converted).
A short description of series [9]: Metabolic stability in cynomolgus monkey liver microsomes assessed as intrinsic clearance at 1 uM by LC/MS/MS analysis. The series is classed as ADME, Macaca fascicularis, Microsome. As to conditions: read-out: CLH (converted).
Series [10] is described as follows: Volume of distribution in male Sprague-Dawley rat at 1 mg/kg, iv s measured after 24 hrs by LC/MS/MS analysis. The following applies: in vivo. It counts as ADME, organism-based.
Series [11] in a line: Volume of distribution in Beagle dog at 1 mg/kg, iv measured after 24 hrs by LC/MS/MS analysis. The series is classed as ADME, organism-based, Canis lupus familiaris. As to conditions: in vivo.
Series [12] is described as follows: Volume of distribution in cynomolgus monkey at 1 mg/kg, iv measured after 24 hrs by LC/MS/MS analysis. As to conditions: in vivo. The series is classed as ADME, organism-based, Macaca fascicularis.
Series [13] in a line: AUC (0 to 24 hrs) in male Sprague-Dawley rat at 5 mg/kg, po measured after 24 hrs by LC/MS/MS analysis. The series is classed as ADME, organism-based. The following applies: in vivo.
Series [14] in a line: AUC (0 to 24 hrs) in Beagle dog at 5 mg/kg, po measured after 24 hrs by LC/MS/MS analysis. As to conditions: in vivo. It counts as ADME, organism-based, Canis lupus familiaris.
A short description of series [15]: AUC (0 to 24 hrs) in cynomolgus monkey at 5 mg/kg, po measured after 24 hrs by LC/MS/MS analysis. The series is classed as ADME, organism-based, Macaca fascicularis. The following applies: in vivo.
The nature of series [16]: Half-life in male Sprague-Dawley rat at 1 mg/kg, iv measured after 24 hrs by LC/MS/MS analysis. The following applies: in vivo. The series is classed as ADME, organism-based.
A short description of series [17]: Half-life in Beagle dog at 5 mg/kg, po measured after 24 hrs by LC/MS/MS analysis. The following applies: in vivo. It counts as ADME, organism-based, Canis lupus familiaris.
A short description of series [18]: Half-life in cynomolgus monkey at 5 mg/kg, po measured after 24 hrs by LC/MS/MS analysis. As to conditions: in vivo. It counts as ADME, organism-based, Macaca fascicularis.
Series [19] can be described thus: Oral bioavailability in male Sprague-Dawley rat at 5 mg/kg measured after 24 hrs by LC/MS/MS analysis. The series is classed as ADME, organism-based. As to conditions: in vivo.
Series [20] can be described thus: Oral bioavailability in Beagle dog at 5 mg/kg measured after 24 hrs by LC/MS/MS analysis. It counts as ADME, organism-based, Canis lupus familiaris. As to conditions: in vivo.
Series [21] is described as follows: Oral bioavailability in cynomolgus monkey at 5 mg/kg measured after 24 hrs by LC/MS/MS analysis. The series is classed as ADME, organism-based, Macaca fascicularis. The following applies: in vivo.
For series [22], the target named is T1, Lysophosphatidic acid receptor 1. Kind of series: […] at LPA1 receptor in human TWNT-4 cells assessed as nuclear translocation pre-incubated for 1 hr followed by 30 min incubation by MRTF-A assay. The series is classed as functional, cell-based.
For series [23] the target is unchanged. As to the kind of experiment: […] at LPA1 receptor in human TWNT-4 cells pre-incubated for 1 hr followed by 30 mins incubation in presence of 4% human serum albumin by MRTF-A assay. The series is classed as functional, cell-based.

T1 sequence (Q92633 whole entry): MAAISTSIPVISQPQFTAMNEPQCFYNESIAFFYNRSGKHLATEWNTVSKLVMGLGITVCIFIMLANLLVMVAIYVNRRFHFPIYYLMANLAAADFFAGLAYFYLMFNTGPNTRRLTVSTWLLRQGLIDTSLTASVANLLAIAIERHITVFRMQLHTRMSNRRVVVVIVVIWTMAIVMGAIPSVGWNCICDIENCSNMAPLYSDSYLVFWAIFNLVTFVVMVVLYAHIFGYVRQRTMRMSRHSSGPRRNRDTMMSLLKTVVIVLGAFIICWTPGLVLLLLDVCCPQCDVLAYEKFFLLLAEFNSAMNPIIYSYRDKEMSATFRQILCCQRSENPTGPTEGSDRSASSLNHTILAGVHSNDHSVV

Consider `Cc1nc(-c2nnn(C)c2NC(=O)O[C@H](C)c2cccnc2Cl)ccc1NS(C)(=O)=O`, for which the EC50 in [1] turned out to be 109 nM. This compound showed a logD in series [2] of 1.5. In addition, the free fraction (fraction unbound) at 24 h in series [3] came out at 0.17. Further, the Papp A→B at 4 h in series [4] was 5.9 ×10⁻⁶ cm/s. In series [5], the pKa at 100 µM came to 7.1. The dose excreted in [6] was 50%.

As for `C[C@@H](OC(=O)Nc1c(-c2ccc(NS(C)(=O)=O)cn2)nnn1C)c1cc(F)cnc1F`, the EC50 in series [1] worked out at 35 nM. Further, the logD in series [2] was determined as 1.5. Besides, the fraction unbound at 24 h in [3] was 0.31. Besides, the Papp A→B at 4 h in [4] stood at 3.2 ×10⁻⁶ cm/s. Moreover, the CLint scaled at 1 µM in series [7] was 18.5 mL/min/kg; in series [8] it was 8.67 mL/min/kg; in series [9], 7.17 mL/min/kg. The figures for the distribution volume (Vd) in series [10], in series [11] and in series [12] were 1 L/kg, 1 L/kg and 0.4 L/kg, respectively. The figures for the AUC(0-t) at 24 h in series [13], in series [14] and in series [15] were 5.4 µM·h, 25 µM·h and 13 µM·h, respectively. For the same compound, the half-life in [16] was 3 h; in [17] it was 3.6 h; in [18], 3.8 h. For the same compound, the bioavailability in [19] is 55%; in [20] it was 100%; in series [21], 45%.

With `CCCCCCCC/C=C\CCCCCCCC(=O)OC[C@@H](O)COP(=O)(O)O` [LYSOPHOSPHATIDIC ACID], the EC50 was determined as 47.3 nM in [22] and 306 nM in series [23].
